# Patent US8338475B2, “Anti-proliferative pharmaceutical composition” (BioCis Pharma Oy, priority 2003, dated 2012)
# Experiments:
# [1] = cited from earlier work
# [2] = system: K562 (chronic myelogenous leukemia); experiment: Proliferation assay (CellTiter 96), K562 cells; type: cell-based, human; conditions: pH 6.5, 44 h, cis-UCA 10 mM, CPT 2 μM, 15,000 cells per 100 μl
# Source text: (§1) Transformed tumour cell lines WM 266-4 and A2058 (cutaneous melanoma), HT-1080 (epithelial fibrosarcoma), HeLa (epithelial adenocarcinoma of cervix), HK293 (kidney epithelial cells) and non-transformed cell line HSF (skin fibroblast from a healthy volunteer donor) of human origin have been described earlier (Li et al. 2003). The K562 (chronic myelogenous leukemia) cells were purchased from American Type Culture Collection.
# (§2) The cells were maintained in logarithmic growth phase in IMDM medium (Invitrogen, Paisley, UK) supplemented with 10% fetal calf serum and antibiotics in a humidified incubator at +37° C., 5% CO2. The adherent cells lines were harvested for experiments with 0.25% trypsin-EDTA in PBS for 5 min and then resuspended and washed in medium. After counting of viable cells, 15,000 to 75,000 cells were transferred into flat-bottom 96-well cell culture plates in a volume of 100 or 150 μl.
# (§3) The proliferation activity of cultured cell lines was quantified in flat-bottom 96-well plates with a modified colorimetric assay based on a tetrazolium derivative (CellTiter 96 Aqueous One Solution Cell Proliferation Assay, Promega). The cells were cultured in the presence of camptothecin and/or cis-UCA for 20 to 92 h, then the proliferation reagent was added for 2 h, and the absorbance at 490 nm was measured in a plate reader. […]
# [3] = system: A2058 cells; experiment: Monitoring of intracellular pH (BCECF, flow cytometry), A2058 cells; type: cell-based, human
# Procedure: The cells were labelled with BCECF and placed in pH-adjusted buffer solutions with or without various concentrations of cis-UCA. Left panels, calibration of BCECF fluorescence intensity of nigericin-treated cells in high-potassium buffer as a function of buffer pH. Right panels, intracellular pH values in buffers with or without various concentrations of cis-UCA. All test buffers were adjusted to pH 7.4 (%) or pH 6.5 (+) after the addition of cis-UCA. Results were calculated using the corresponding calibration curve on the left.
# Intracellular pH in the cell lines in the presence of cis-UCA was measured with the pH-sensitive fluorescent dye 2′,7′-bis-(2-carboxyethyl)-5-(and-6)-carboxyfluorescein (BCECF, acetoxymethyl ester; Molecular Probes, Leiden, The Netherlands) by flow cytometry. Two million cells were incubated in 5 ml DMEM medium (Invitrogen), pH 7.4, containing 0.35 μM BCECF at 37° C. for 30 min, washed once in sodium phosphate buffer (50 mM NaH2PO4/Na2HPO4, 43 mM NaCl), pH 7.4, and resuspended in 0.3 ml saline. Twenty μl of the cell suspension was pipetted into flow cytometry tubes. […]
# Calibration of intracellular pH in situ was performed using the K^+/H^+ ionophore nigericin (Molecular Probes) in high-potassium buffers. […] Exact intracellular pH values were calculated from mean BCECF fluorescence intensities by reference with nigericin-clamped calibration cells. […]
# [4] = system: A2058 human cutaneous melanoma tumours; experiment: Tumour growth in SCID/SCID mice in vivo; conditions: 16-day treatment, intratumoural 30 mM cis-UCA, 1 μM CPT, pH 6.5
# Procedure: All injection solutions were adjusted to pH 6.5. The data points have been normalised to unity tumour size at day 0. Data from five mice in each group is included (mean, SD).
# The A2058 human cutaneous melanoma cells were cultured under normal cell culture conditions prior to injection into mice. Two million A2058 cells were injected s.c. into the neck of SCID/SCID mice (Charles River Laboratories, Germany). Tumours were allowed to develop for two weeks to the size of a small pearl before the treatments. The mice were divided into four groups of six animals, each containing three males and three females. Each tumour was first injected 50 μl of one of the test solutions (A: PBS; B: 30 mM cis-UCA; C: 1 μM CPT; D: 30 mM cis-UCA+1 μM CPT) three times a week (Mon-Wed-Fri). After day 7 from the beginning of injections, the injection volume was increased to 150 μl injected into three different sides of the tumour. Tumour length and width were measured with a caliper three times a week before each injection. Tumour planar area was calculated as length×width. The tumour growth inhibition efficiency I of the treatments was calculated according to Equation 1:
# [formula] where Sr represents the normalised relative size of the tumour in the control group (A) or any of the treatment groups (T), and d0 to d16 are the (eight) measuring time points during the 16-day treatment period.
# After 16 days from the first injection, all the animals were sacrificed with CO2, and the tumours were collected and fixed in formalin for further studies. In groups A, C, and D, one mouse was sacrificed before the end of the experiment because of poor development of the tumour (no measurable tumour at day 0). One animal in group B was sacrificed prematurely after it had severly scratched the tumour. Data from these animals were not included in the calculation of the tumour size results. All the removed animals were female mice. Immunohistochemical data was obtained also from the removed mice except from group B. The experiments were conducted under a protocol approved by the local ethics committee.
# [5] = system: human polymorphonuclear neutrophils; conditions: extracellular pH range 6.1 to 7.0; patent application US2006035973; cited from earlier work
# [6] = system: HSF (skin fibroblast); experiment: Proliferation assay (CellTiter 96), HSF cells; type: cell-based, human; conditions: pH 6.5, 44 h, cis-UCA 10 mM, CPT 2 μM, 15,000 cells per 100 μl
# Source text: as §1, §2, §3
smiles,measurement,setting,value
"O=C(O)/C=C\c1c[nH]cn1 [cis-UCA, cis-urocanic acid]",second pKa (imidazolyl group),"[1]; Roberts et al. 1982, Krien & Kermici 2000",7.0
same,first pKa (carboxyl group),[1]; Roberts et al. 1982,3.3
same,Inhibition of proliferation (mean percentage inhibition ± SD compared with untreated control),[2],26 ± 2.9%
same,decrease of intracellular pH,"[3]; extracellular pH 6.5, highest cis-UCA concentration (30 mM)",about 0.25 pH units
same,intracellular pH with escalating concentrations,"[3]; extracellular pH 7.4, cis-UCA up to 30 mM",remained almost constant
same,"Growth suppression, female",[4]; female mice,72.0%
same,"Growth suppression, male",[4]; male mice,55.9%
same,effect on the intracellular pH of neutrophils,[5],affected the intracellular pH
same,Inhibition of proliferation (mean percentage inhibition ± SD compared with untreated control),[6],41 ± 1.1%
